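Test compounds were applied to cells in 96-well plates for 48 hours at 5 doses. GI50: concentration for 50% inhibition of growth.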 Calls of active or inactive are those of the source. No stated cut-off is given here; in the data, active = GI50 up to about 1.1 µM and inactive = higher.
Columns and labels:
Test in all cases: NCI tumour cell line growth inhibition, 48 h
[1] = test system: 786-0
[2] = test system: A498
[3] = test system: A549
[4] = test system: ACHN
[5] = test system: BT-549
[6] = test system: CAKI-1
[7] = test system: CCRF-CEM
[8] = test system: COLO 205
[9] = test system: DU-145
[10] = test system: EKVX
[11] = test system: HCC 2998
[12] = test system: HCT-116
[13] = test system: HCT-15
[14] = test system: HL-60
[15] = test system: HOP-62
[16] = test system: HOP-92
[17] = test system: HT-29
[18] = test system: Hs-578T
[19] = test system: IGROV-1
[20] = test system: K562
[21] = test system: KM12
[22] = test system: LOX IMVI
[23] = test system: M14
[24] = test system: MCF7
[25] = test system: MDA-MB-231
[26] = test system: MDA-MB-435
[27] = test system: MDA-N
[28] = test system: MOLT-4
[29] = test system: Malme-3M
[30] = test system: NCI-H226
[31] = test system: NCI-H23
[32] = test system: NCI-H460
[33] = test system: NCI-H522
[34] = test system: NCI/ADR-RES
[35] = test system: OVCAR-3
[36] = test system: OVCAR-4
[37] = test system: OVCAR-5
[38] = test system: OVCAR-8
[39] = test system: PC-3
[40] = test system: RPMI-8226
[41] = test system: RXF 393
[42] = test system: SF-268
[43] = test system: SF-295
[44] = test system: SF-539
[45] = test system: SK-MEL-28
[46] = test system: SK-MEL-2
[47] = test system: SK-MEL-5
[48] = test system: SK-OV-3
[49] = test system: SN12C
[50] = test system: SNB-19
[51] = test system: SNB-75
[52] = test system: SR
[53] = test system: SW-620
[54] = test system: T47D
[55] = test system: TK-10
[56] = test system: U-251
[57] = test system: UACC-257
[58] = test system: UACC-62
[59] = test system: UO-31

O=c1cc(N=P(c2ccccc2)(c2ccccc2)c2ccccc2)n(-c2ccccc2)c(=O)n1-c1ccccc1
GI50 [1]: 6.3 µM (inactive)
GI50 [2]: 3.18 µM (inactive)
GI50 [3]: 6.25 µM (inactive)
GI50 [4]: 4.33 µM (inactive)
GI50 [5]: 14.5 µM (inactive)
GI50 [6]: 12.7 µM (inactive)
GI50 [7]: 8.63 µM (inactive)
GI50 [8]: 6.56 µM (inactive)
GI50 [9]: 9.51 µM (inactive)
GI50 [10]: 10.4 µM (inactive)
GI50 [11]: 8.26 µM (inactive)
GI50 [12]: 13.3 µM (inactive)
GI50 [13]: 3.38 µM
GI50 [14]: 5.06 µM (inactive)
GI50 [15]: 6.52 µM (inactive)
GI50 [16]: 9.02 µM (inactive)
GI50 [17]: 15.9 µM (inactive)
GI50 [18]: 18.2 µM (inactive)
GI50 [19]: 17.9 µM (inactive)
GI50 [20]: 3.31 µM (inactive)
GI50 [21]: 14.9 µM (inactive)
GI50 [22]: 8.77 µM (inactive)
GI50 [23]: 8.79 µM (inactive)
GI50 [24]: 6.03 µM (inactive)
GI50 [25]: 8.18 µM (inactive)
GI50 [26]: 5.2 µM (inactive)
GI50 [27]: 7.64 µM (inactive)
GI50 [28]: 3.48 µM (inactive)
GI50 [29]: 11.8 µM (inactive)
GI50 [30]: 3.92 µM (inactive)
GI50 [31]: 5.85 µM (inactive)
GI50 [32]: 4.15 µM (inactive)
GI50 [33]: 14.4 µM (inactive)
GI50 [34]: 21.8 µM (inactive)
GI50 [35]: 8.17 µM (inactive)
GI50 [36]: 4.95 µM (inactive)
GI50 [37]: 23.2 µM (inactive)
GI50 [38]: 12.3 µM (inactive)
GI50 [39]: 3.94 µM (inactive)
GI50 [40]: 4.92 µM (inactive)
GI50 [41]: 1.53 µM (inactive)
GI50 [42]: 29 µM (inactive)
GI50 [43]: 20.7 µM (inactive)
GI50 [44]: 3.76 µM (inactive)
GI50 [45]: 23.9 µM (inactive)
GI50 [46]: 13.8 µM (inactive)
GI50 [47]: 10.3 µM (inactive)
GI50 [48]: 22.2 µM (inactive)
GI50 [49]: 11.1 µM (inactive)
GI50 [50]: 17.7 µM (inactive)
GI50 [51]: 10.1 µM (inactive)
GI50 [52]: 4.28 µM (inactive)
GI50 [53]: 7.45 µM (inactive)
GI50 [54]: 8.85 µM (inactive)
GI50 [55]: 15.2 µM (inactive)
GI50 [56]: 8.02 µM (inactive)
GI50 [57]: 23.8 µM (inactive)
GI50 [58]: 11.4 µM (inactive)
GI50 [59]: 4.92 µM (inactive)
